Measured values from ChEMBL document CHEMBL5321239, “Exploration of imatinib and nilotinib-derived templates as the P2-Ligand for HIV-1 protease inhibitors: Design, synthesis, protein X-ray structural studies, and biological evaluation” (Eur J Med Chem, 2023).
pIC50, pKi: −log10 of the molar value.

Legend:
[1] = system: Human immunodeficiency virus; experiment: Antiviral activity against HIV LAI infected in human MT2 cells assessed as inhibition of viral growth; type: functional, organism-based; conditions: Human immunodeficiency virus 1, LAI
[2] = biological target: Human immunodeficiency virus type 1 protease (Human immunodeficiency virus 1, UniProt Q72874); experiment: Inhibition of HIV-1 protease expressed in Escherichia coli assessed as inhibition constant using Ac-Thr-Ile-Met-Met-Gln-Arg as substrate preincubated for 10 mins followed by substrate addition by HPLC analysis

## COc1ccc(S(=O)(=O)N(CC(C)C)C[C@@H](O)[C@H](Cc2ccccc2)NC(=O)c2ccc(C)c(Nc3nc(-c4cccnc4)cs3)c2)cc1
[1]
  pIC50: 6.41

## Cc1ccc(C(=O)N[C@@H](Cc2cc(F)cc(F)c2)[C@H](O)CN(CC(C)C)S(=O)(=O)c2ccc(N)cc2)cc1Nc1nccc(-c2cccnc2)n1
[1]
  pIC50: 6.67

## COc1ccc(S(=O)(=O)N(CC(C)C)C[C@@H](O)[C@H](Cc2ccccc2)NC(=O)c2ccc(C)c(Nc3nc(C(F)(F)F)cs3)c2)cc1
[1]
  pIC50: < 6.00

## COc1ccc(S(=O)(=O)N(CC(C)C)C[C@@H](O)[C@H](Cc2ccccc2)NC(=O)c2cc(C)cc(Nc3nc(-c4cccnc4)cs3)c2)cc1
[1]
  pIC50: < 6.00

## COc1ccc(S(=O)(=O)N(CC(C)C)C[C@@H](O)[C@H](Cc2cc(F)cc(F)c2)NC(=O)c2ccc(C)c(Nc3nccc(-c4cccnc4)n3)c2)cc1
[1]
  pIC50: 6.91

## Cc1ccc(C(=O)N[C@@H](Cc2ccccc2)[C@H](O)CN(CC(C)C)S(=O)(=O)c2ccc(N)cc2)cc1Nc1nccc(-c2cccnc2)n1
[1]
  pIC50: 7.18

## CC(C)CN(C[C@@H](O)[C@H](Cc1ccccc1)NC(=O)O[C@H]1CO[C@H]2OCC[C@H]21)S(=O)(=O)c1ccc(N)cc1
[1]
  pIC50: 8.68

## COc1ccc(S(=O)(=O)N(CC(C)C)C[C@@H](O)[C@H](Cc2ccccc2)NC(=O)c2cc(Nc3nc(C)cs3)ccc2C)cc1
[1]
  pIC50: < 6.00

## COc1ccc(S(=O)(=O)N(CC(C)C)C[C@@H](O)[C@H](Cc2ccccc2)NC(=O)c2ccc(C)c(Nc3nccc(-c4cccnc4)n3)c2)cc1
[1]
  pIC50: 6.81
[2]
  pKi: 10.55

## COc1ccc(S(=O)(=O)N(CC(C)C)C[C@@H](O)[C@H](Cc2ccccc2)NC(=O)c2cccc(Nc3nc(C(F)(F)F)cs3)c2C)cc1
[1]
  pIC50: < 6.00

## COc1ccc(S(=O)(=O)N(CC(C)C)C[C@@H](O)[C@H](Cc2ccccc2)NC(=O)c2cc(C)cc(Nc3nc(C)cs3)c2)cc1
[1]
  pIC50: < 6.00

## COc1ccc(S(=O)(=O)N(CC(C)C)C[C@@H](O)[C@H](Cc2ccccc2)NC(=O)c2cccc(Nc3nc(C)cs3)c2C)cc1
[1]
  pIC50: < 6.00

## COc1ccc(S(=O)(=O)N(CC(C)C)C[C@@H](O)[C@H](Cc2ccccc2)NC(=O)c2ccc(C)c(Nc3nc(C)cs3)c2)cc1
[1]
  pIC50: < 6.00
[2]
  pKi: 7.58

## COCc1csc(Nc2ccc(C)c(C(=O)N[C@@H](Cc3ccccc3)[C@H](O)CN(CC(C)C)S(=O)(=O)c3ccc(OC)cc3)c2)n1
[1]
  pIC50: 6.20

## COc1ccc(S(=O)(=O)N(CC(C)C)C[C@@H](O)[C@H](Cc2ccccc2)NC(=O)c2cc(Nc3nc(-c4cccnc4)cs3)ccc2C)cc1
[1]
  pIC50: 6.24
[2]
  pKi: 8.06

## COc1ccc(S(=O)(=O)N(CC(C)C)C[C@@H](O)[C@H](Cc2ccccc2)NC(=O)c2cccc(Nc3nc(-c4cccnc4)cs3)c2C)cc1
[1]
  pIC50: < 6.00
[2]
  pKi: 7.71

## COc1ccc(S(=O)(=O)N(CC(C)C)C[C@@H](O)[C@H](Cc2ccccc2)NC(=O)c2ccc(C)c(Nc3nc(-c4cccnc4)cs3)c2C)cc1
[1]
  pIC50: 6.29
